Consider one compound from patent US11535599B2, “Benzisoxazole derivative” (Sumitomo Pharma Co., Ltd., priority 2020, dated 2022).

The subject of test [1] is oxaliplatin chemotherapy-induced peripheral neuropathy model. Nature of the test: Anti-allodynia effect in chemotherapy-induced peripheral neuropathy model (acetone test). It is filed as in vivo, rat. As to conditions: Example 13 100 mg/kg oral once a day 17 times; duloxetine 30 mg/kg oral single. From the text: As one of chemotherapy-induced peripheral neuropathy, sensory disturbance due to neuropathy caused by a platinating agent that is an anticancer agent such as cisplatin and oxaliplatin is known, and the symptom is difficult to be recovered even after the medication is discontinued. The therapeutic effect for sensory disturbance caused by repetitive administration of oxaliplatin was studied in the present test.
To male Crl: CD (SD) rats (7 weeks old) (CHARLES RIVER LABORATORIES JAPAN, INC.), oxaliplatin (5 mg/kg) was intraperitoneally administered for the two consecutive days in a week, totally 6 times, to prepare chemotherapy-induced peripheral neuropathy models. The compound of Example 13 (100 mg/kg) was repeatedly orally administered once a day, totally 17 times. […] In the acetone test, 0.1 mL of acetone was sprayed to the foot sole of the rat hind paw, and the reaction was evaluated according a scoring (Cold Score). When there was no reaction for 20 seconds after spraying acetone, Score 0 was recorded and the observation was stopped. When there was any reaction for the 20 seconds, the observation was continued until 40 seconds after spraying, and the score was recorded according to the evaluation scale. The acetone spray was done twice each for right and left hind paws, and the total score was calculated. […]

The next test relates to mouse elevated plus maze. Kind of test: Anxiolytic-like action, mouse elevated plus maze. In kind it is in vivo. The settings on record: Example 13 at 10 mg/kg or more oral; diazepam 3 mg/kg oral. Here is the method: In Parkinson's disease, psychiatric symptom (e.g. depression, anxiety) is known as one of its non-motor symptoms. The anxiolytic-like action of the present invention was evaluated with mouse elevated plus maze. The present test is broadly used as a method for evaluating the anxiolytic-like action of agents.
In the present test, male Crl: CD1 (ICR) mice (CHARLES RIVER LABORATORIES JAPAN, INC.) were used. One hour before the test was started, the solvent, the compound of Example 13 (3 mg/kg, 10 mg/kg, 30 mg/kg, or 100 mg/kg), or diazepam (3 mg/kg) which is a positive control was orally administered to the mouse. The mouse was put into a center platform in which the illuminance was adjusted to 80-100 Lux level. The head of the mouse was set toward the closed arm, and then the test was started. The mouse was allowed to explore freely for 5 minutes. When ⅓ of the mouse's body entered the arm, the behavior was counted as arm entry. And, the time spent in the open arm was also measured with a stopwatch. The ratio of the count of the open arm entry per the count of the all arm entry, and the ratio of the time spent in the open arm per the total exploration time (5 minutes) were calculated. […] Thus, the ratio of the count of the open arm entry per the count of the all arm entry, and the ratio of the time spent in the open arm per the total exploration time tend to be small values. When these ratios in the drug administration group are higher than those of the solvent administration group, it can be judged that the drug has anxiolytic-like action.

Test [2] has as its system unilateral lesion model of nigrostriatal dopamine neuron induced with 6-OHDA. Nature of the test: Anti-tremor effect in 6-OHDA unilateral lesion model. In kind it is in vivo, rat. The settings on record: 3 mg/kg oral, counted 10 minutes one hour later. An excerpt: A unilateral lesion model of nigrostriatal dopamine neuron induced with 6-OHDA is broadly used for evaluating the drug efficacy for treating Parkinson's disease, as shown in Test 3. In addition, the present model is known to present with jaw tremor which corresponds to the tremor frequency in a patient of Parkinson's disease, thus which is also expected to be a tremor model in Parkinson's disease. With the present model, the effect of the present compound for inhibiting the tremor in Parkinson's disease was evaluated. According to the procedure described in Test 3, a unilateral lesion model of nigrostriatal dopamine neuron was prepared. The compound of Example 13 (3 mg/kg) was orally administered to the model rat. One hour later, the number of tremulous jaw movements was counted for 10 minutes.

Test [3] concerns rat sleep electroencephalogram. Nature of the test: Effect for sleeping stage/waking stage, rat sleep electroencephalogram. In kind it is in vivo. The settings on record: 30 or 100 mg/kg oral, 6 hours. As to the method: As non-motor symptoms in Parkinson's disease, sleep disorder such as insomnia (e.g. difficulty falling asleep, nocturnal awakening, etc.) is known. It is important to improve sleeping quality. The effect of the present compounds for sleep was evaluated by measuring rat sleep electroencephalogram.
In the present test, male Crlj: WI rats (CHARLES RIVER LABORATORIES JAPAN, INC.) were used. Under anesthesia, a radiofrequency transmitter (HD-S02, Data Science International, Inc.) was set in the peritoneal cavity of the rat, and two electrodes for measuring electroencephalogram were stereotaxically placed in the skull (frontoparietal electrode: 2 mm ahead of bregma and 2 mm left from midline, parietal electrode: 5 mm behind bregma and 2 mm right from midline). An electrode for recording electromyogram was placed in the dorsal neck muscle. After more than one week as postoperative recuperation period, the rats were used in the sleep electroencephalogram measurement.
The compound of Example 13 (30 mg/kg or 100 mg/kg) was orally administered to the rat just before light phase, and the electroencephalogram and electromyogram of the rat were recorded at 500 Hz for 6 hours in a breeding cage in a soundproof box. The recorded signals were classified to 3 stages, wake/REM sleep/non-REM sleep every 10 seconds with a sleep analysis program Sleepsign (version 3, Kissei Comtec Co., Ltd.), and aggregated. Specifically, when the myoelectric response was beyond the threshold defined for each individual animal, it was classified as wake, and otherwise it was classified as sleep. In the sleep, when the power value at delta wave (0.5-4 Hz) of EEG-frequency component was beyond the threshold defined for each individual beforehand, it was classified as non-REM sleep. When the power value at theta wave (4-8 Hz) was beyond 40% of the total power value at 0.5-80 Hz, it was classified as REM sleep.

`C[C@H](c1noc2ccccc12)S(N)(=O)=O` [Example 13, (1R)-1-(1,2-benzoxazol-3-yl)ethane-1-sulfonamide]: the “Cold Score in acetone test” value in test [1] is recorded as “significantly lower Cold Score”. Besides, in the test on mouse elevated plus maze, the “count of the open arm entry” value is reported as “increase significantly” and the “time spent in the open arm” value was “increase significantly”. Also, the “number of tremulous jaw movements” value in test [2] was “significantly decreased the number of tremulous jaw movements per unit time”. Also, in test [3], the REM sleep latency entry is recorded as “tended to elongate”, the REM sleep time entry is given as “significantly shortened”, the non-REM sleep latency result was “significantly shortened” and the non-REM sleep time entry was “increased”. In addition, the waking time entry in test [3] was “significantly shortened”.
